System: IL1α release from NIH 3T3 cell transfectants
Test: Heat shock-induced release of IL1α from NIH 3T3 cell transfectants (immunoblot of conditioned media)
Assay type: cell-based, human
Description: FIG. 5, comprising FIGS. 5A and 5B, depict the involvement of Cu^2+ in IL1α release. FIG. 5A is an image depicting results obtained using NIH 3T3 cells stably transfected with mIL1α-βGal. The cells were incubated for 18 hours at 37 C in the absence and presence of the Cu^2+ chelator, tetrathiomolybdate (TTM) as indicated and the untreated and treated cells either maintained at 37 C or subjected to heat shock as described in FIG. 3. The conditioned medium was evaluated for IL1α-βGal release by IL1α immunoblot analysis, and cell lysates from TTM-treated cells were used to monitor the intracellular level of IL1α-βGal expression. […] FIG. 5B is an image depicting release of IL1α-βGal in myc-S100A13 and IL1α-βGal NIH 3T3 cell cotransfectants and in insert-less vector and mIL1α-βGal NIH 3T3 cell transfectants in the presence and absence actinomycin D (10 μg/ml), as indicated, in response to heat shock. Conditioned media were processed and evaluated for IL1α-βGal immunoblot analysis as described in Tarantini et al. (2001).
Stable NIH 3T3 cell transfectants were generated accordingly with the following cDNA constructs cloned into pMEXneo (Tarantini, et al. 2001; Tarantini, et al. 1995; Tarantini, et al. 1998; LaVallee, et al. 1998; Carreira, et al. 1998; Landriscina, et al., 2001): human S100A13 with an amino-terminal fusion to a 6 Myc Tag (Myc-S100A13) (Landriscina, et al., 2001); human Myc-S100A13ΔBR (Landriscina, et al., 2001); human mIL1α (residues 113-271); human mIL1α with a carboxy-terminal fusion to a βGalactosidase tag (mIL1α-βGal) (Tarantini, et al. 2001); and pIL1α (residues 1-271) with a carboxy-terminal fusion to βGalactosidase (pIL1α-βGal) (Tarantini, et al. 2001). Recombinant human mIL1α was provided by Hoffmann-LaRoche. Recombinant human S100A13, as well as S100A13ΔBR, a S100A13 construct with the basic residue rich domain (residues 88 to 98) deleted, were generated as previously described (Landriscina, et al., 2001).
NIH 3T3 cell transfectants were grown to 70-80% confluency and prior to temperature stress, the cells were washed with serum-free DMEM. The heat shock was performed as previously described (Tarantini et al., 1995) in serum-free DMEM for 110 min at 42° C. Control cultures were incubated at 37° C. in serum-free DMEM. […] Immunoprecipitated and eluted proteins were resolved by 8% and 12% acrylamide SDS-PAGE, respectively, and evaluated by either IL1α (Tarantini, et al. 2001) or Myc (Landriscina, et al., 2001) immunoblot analysis. […] The effects of actinomycin D (Sigma Chemical Co., St. Louis, Mo.), cyclohexamide (Sigma) and tetrathiomolybdate (Sigma-Aldrich) on IL1α release were evaluated as previously reported (LaVallee et al., 1998).

[NH4+].[NH4+].[SH-].[SH-].[S]=[Mo]=[S] [TTM, ammonium tetrathiomolybdate]
concentration at which TTM inhibited release of IL1α in response to heat shock (NIH 3T3 cells stably transfected with mIL1α-βGal, incubated 18 hours at 37 C with TTM, then heat shock, IL1α immunoblot (FIG. 5A)): 250 nM | repression of release of IL1α-βGal in response to temperature stress (TTM introduced into the Myc-S100A13 and IL1α-βGal cotransfectant system with actinomycin D): able to repress

Source: patent US20090123565A9, “Copper-dependent non-traditional pro-inflammatory cytokine export and methods, compositions and kits relating thereto” (Maine Medical Center Research Institute, priority 2001, published 2009)
